# Patent US20140031283A1, “ANTICANCER FUSION PROTEIN” (ADAMED SP. Z O.O., priority 2011, published 2014)
# Legend:
# [1] = tested on: human colon cancer model SW620; experiment: SW620 colon cancer xenograft in Crl:SHO-Prkdc^scidHr^hr mice; type: in vivo; conditions: 30 mg/kg i.v. six times every second day, 31st day
# Experimental: (§1) Antitumor activity of protein preparations was tested in a mouse model of human colon cancer HCT116, human colon cancer Colo205, human colon cancer model SW620, human liver cancer model HepG2, and human lung cancer models NCI-H460 and NCI-H460-Luc2.
# The HCT116 (in mice Crl:SHO-Prkdc^scidHr^hr) were alternatively maintained in McCoy's medium (Hyclone, Logan, Utah, USA) supplemented with 10% fetal calf serum and 2 mM glutamine. On the day of mice grafting, the cells were detached from the support by washing the cells with trypsin (Invitrogen), then the cells were centrifuged at 1300 rpm, 4° C., 8 min., suspended in HBSS buffer (Hanks medium), counted and diluted to the concentration of 25×10^6 cells/ml. SW620 cells were maintained in DMEM (HyClone, Logan, Utah, USA) supplemented with 10% fetal calf serum and 2 mM glutamine. On the day of mice grafting, the cells were detached from the support by washing the cells with trypsin (Invitrogen), then the cells were centrifuged at 1300 rpm, 4° C., 8 min., suspended in HBSS buffer (Hanks medium), counted and diluted to the concentration of 25×10^6 cells/ml.
# Examination of antitumor activity of proteins of the invention was conducted on 7-9 week-old CD-nude (Crl:CD1-Foxn1^nu 1) or 4-6 week-old Crl:SHO-Prkdc^scidHr^hr mice obtained from Charles River Germany. […]
# [2] = tested on: human colon cancer Colo205; experiment: Colo205 colon cancer xenograft in Crl:SHO-Prkdc^scidHr^hr mice; type: in vivo; conditions: 30 mg/kg i.v. six times every second day, 33rd day
# Experimental: as §1
# The HCT116 (in mice Crl:CD1-Foxn1^nu 1), Colo205, NCI-H460, NCI-H460-Luc2 cells were maintained in RPMI 1640 medium (Hyclone, Logan, Utah, USA) mixed in the ratio of 1:1 with Opti-MEM (Invitrogen, Cat.22600-134) supplemented with 10% fetal calf serum and 2 mM glutamine. On the day of mice grafting, the cells were detached from the support by washing the cells with trypsin (Invitrogen), then the cells were centrifuged at 1300 rpm, 4° C., 8 min., suspended in HBSS buffer (Hanks medium), counted and diluted to the concentration of 25×10^6 cells/ml.
# Examination of antitumor activity of proteins of the invention was conducted on 7-9 week-old CD-nude (Crl:CD1-Foxn1^nu 1) or 4-6 week-old Crl:SHO-Prkdc^scidHr^hr mice obtained from Charles River Germany. Mice were kept under specific pathogen-free conditions with free access to food and demineralised water (ad libitum). All experiments on animals were carried in accordance with the guidelines: “Interdisciplinary Principles and Guidelines for the Use of Animals in Research. […]
substance,measurement,setting,value
"rhTRAIL114-281: recombinant human soluble TRAIL, amino acids 114-281 of hTRAIL, used as the comparative reference",tumor growth inhibition (TGI) relative to the control,[1],−9%
same,tumor growth inhibition (TGI) relative to the control,[2],18.8%
